According to paper PMC5978884, “Dissection of the antimicrobial and hemolytic activity of Cap18: Generation of Cap18 derivatives with enhanced specificity” (PLoS ONE, 2018):
Where no end group is shown, it is not given here.

What was measured:
[1] = test system: Enterococcus faecalis ATCC29212; type: cell-based
Procedure: (§1) All strains were grown in Mueller-Hinton-II medium, except L. monocytogenes which was grown in BHI medium and L. lactis which was grown in MRS medium. Incubation took place aerobically at 37°C, except for Y. ruckeri and A. salmonicida, which were grown aerobically at RT (20 °C), and L. lactis grown aerobically at 30°C. All plates were incubated for 16–21 hours.
(§2) The minimum inhibitory concentrations (MICs) of the AMPs were measured in 96-well microtiter plates according the Clinical and Laboratory Standards Institute (CLSI, formerly National Committee for Clinical Laboratory Standards [NCCLS]). Briefly, liquid Mueller-Hinton-II medium containing increasing concentrations of AMPs is inoculated with a defined number of cells (approx. 10^5 CFUs/ml) in 96-well microtiter plates (polypropylene), whereas each plate also includes a positive growth control and a negative control (sterile control). The range of peptide concentrations analyzed was 0.125–64 μg/ml for the high purity peptides and 0.06–32 μg/ml for peptides of the variant library. After incubation, the MIC is determined by the lowest concentration showing no visible growth. All plates were incubated for 16–20 hours. The MIC of the reference antibiotics was determined by the use of Sensititre panels (Trek Diagnostic Systems Ltd, East Grinstead, UK).

[2] = test system: Pseudomonas aeruginosa ATCC27853; type: cell-based
Procedure: as §1, §2

[3] = test system: Escherichia coli ATCC25922; type: cell-based
Procedure: as §1, §2

[4] = test system: Listeria monocytogenes N22-2; type: cell-based
Procedure: as §1, §2

[5] = test system: Lactococcus lactis IL1403; type: cell-based
Procedure: as §1, §2

[6] = test system: Yersinia ruckeri 392/2003; test: microbe, parasite or virus in culture; type: cell-based
Procedure: as §1, §2

[7] = test system: Aeromonas salmonicida ATCC33658; test: microbe, parasite or virus in culture; type: cell-based; conditions: ATCC33658
Procedure: as §1, §2

[8] = test system: Salmonella enterica serovar Typhimurium LT2; test: microbe, parasite or virus in culture; type: cell-based; conditions: LT2
Procedure: as §1, §2

[9] = test system: all the tested bacterial species including Gram-positive and Gram-negative bacteria
Procedure: as §2, with “The range of peptide concentrations analyzed was 0.125–64 μg/ml for the high purity peptides and 0.06–32 μg/ml for peptides of the variant library.” left out
To identify Cap18 variant peptides with changed species specificity, the antimicrobial screening data of Y. ruckeri, A. salmonicida, S. Typhimurium and L. lactis was compared.
In addition, three Cap18 derivatives harboring either a I13F, I13M or G26T substitution were ordered as positive controls. […] The antimicrobial activity of the highly pure peptides was determined by measuring the MIC value of each derivative against the four test strains Y. ruckeri, A. salmonicida, S.Typhimurium and L. lactis (Table 6). […] In addition to the additional screening strains, a wider range of relevant pathogens including Gram-positive and Gram-negative bacteria was analyzed for targeted antimicrobial activity.

Sequence	MIC E. faecalis ATCC29212 [1] [µg/mL]	MIC P. aeruginosa ATCC27853 [2] [µg/mL]	MIC E. coli ATCC25922 [3] [µg/mL]	MIC L. monocytogenes N22-2 [4] [µg/mL]	MIC L. lactis IL1403 [5] [µg/mL]	MIC Y. ruckeri [6] [µg/mL]	MIC Y. ruckeri 392/2003 [6] [µg/mL]	MIC A. salmonicida [7] [µg/mL]	MIC A. salmonicida ATCC33658 [7] [µg/mL]	MIC S. Typhimurium [8] [µg/mL]	MIC S. Typhimurium LT2 [8] [µg/mL]	MIC against all the tested bacterial species [9] [µg/mL]
GLRKRLRKFRNKIKEKLKKIGQKCQGLLPKLAPRTDY [Peptide 25]	64	16	16	16	≥64	4	16	4	4 to 8	4	8 to 16	
GLRKRLRKFRNKIKEKLKKNGQKIQGLLPKLAPRTDY [Peptide 22]	≥64	8 to 16	≥64	16 to 32	≥64	16	≥64	4	16	4	8 to 16	
GLRKRLRKFRNKIKECLKKIGQKIQGLLPKLAPRTDY [Peptide 9]	32	16 to 32	8	16	≥64	2	8 to 16	4	8	8	8 to 16	
GLRKRLRKFRNKIKEKLKKIGQKGQGLLPKLAPRTDY [Peptide 27]	≥64	16	≥64	32	≥64	16	32	8	8	4	8 to 16	
GLRKRLRKFRNKIKEKLKKIGQKNQGLLPKLAPRTDY [Peptide 28]				32							32	≥ 32
GLRKRLRKFRNKQKEKLKKIGQKIQGLLPKLAPRTDY [Peptide 7]	32	8	16 to 32	16	≥64		8	4	8	4	4 to 8	
GLRKRLRKFRNKHKEKLKKIGQKIQGLLPKLAPRTDY [Peptide 5]	≥64	8 to 16	4	32	≥64	8	8 to 16	4	2 to 4	8	4	
GLRKRLRKFRNKIKEDLKKIGQKIQGLLPKLAPRTDY [Peptide 10]	32	16 to 32	4 to 8	4 to 8	2		4		2 to 4		4	
GLRKRLRKFRNKIKEKLKKILQKIQGLLPKLAPRTDY [Peptide 24]	16	16	16	16	≥64	4	16	4	16	8	16	
